Data on 4 molecules can be found in US10800777B2, “Polymorphic forms of VENCLEXTA” (Mylan Laboratories Limited, priority 2016, dated 2020).

The nature of this data set: Storage stability of venetoclax polymorphs, analyzed by PXRD for polymorph integrity. Format: physicochemical. On the procedure: The present invention provides new polymorphs of venetoclax which may be characterized by powder X-ray diffraction (PXRD). Thus, samples of each disclosed polymorph were analyzed by PXRD on a BRUKER D-8 Discover powder diffractometer equipped with a goniometer of θ/2θ configuration and Lynx Eye detector. The Cu-anode X-ray tube was operated at 40 kV and 30 mA. The experiments were conducted over the […] of 2.0°-50.0°, 0.030° step size, and 0.4 seconds step time.
Thus, the stability of samples of amorphous venetoclax, as well as crystalline forms M9, M10, and M21 were stored at 40° C./75% relative humidity (RH) and at 25° C./60% relative humidity (RH) for 3 months. The samples were analyzed by PXRD for polymorph integrity.

“Also recorded” adds a separate entry of the source.

Regarding `CC1(C)CCC(CN2CCN(c3ccc(C(=O)NS(=O)(=O)c4ccc(NCC5CCOCC5)c([N+](=O)[O-])c4)c(Oc4cnc5[nH]ccc5c4)c3)CC2)=C(c2ccc(Cl)cc2)C1` [form M21, 4-[4-[[2-(4-chlorophenyl)-4,4-dimethylcyclohexen-1-yl]methyl]piperazin-1-yl]-N-[3-nitro-4-(oxan-4-ylmethylamino)phenyl]sulfonyl-2-(1H-pyrrolo[2,3-b]pyridin-5-yloxy)benzamide], the “PXRD (polymorph integrity)” value by setting is: (at 25° C./60% RH, 3 months, listed as M21) “no change in PXRD pattern; also recorded: Stable”; (at 25° C./60% RH, Initial, listed as M21) “Crystalline”; (at 40° C./75% RH, 3 months, listed as M21) “no change in PXRD pattern; also recorded: Stable”; (at 40° C./75% RH, Initial, listed as M21) “Crystalline”.

`CC1(C)CCC(CN2CCN(c3ccc(C(=O)NS(=O)(=O)c4ccc(NCC5CCOCC5)c([N+](=O)[O-])c4)c(Oc4cnc5[nH]ccc5c4)c3)CC2)=C(c2ccc(Cl)cc2)C1` [form M9, 4-[4-[[2-(4-chlorophenyl)-4,4-dimethylcyclohexen-1-yl]methyl]piperazin-1-yl]-N-[3-nitro-4-(oxan-4-ylmethylamino)phenyl]sulfonyl-2-(1H-pyrrolo[2,3-b]pyridin-5-yloxy)benzamide]: the “PXRD (polymorph integrity)” value (at 25° C./60% RH, 3 months, listed as M9) is reported as “no change in PXRD pattern; also recorded: Stable”; the “PXRD (polymorph integrity)” value (at 25° C./60% RH, Initial, listed as M9) is given as “Crystalline”; the “PXRD (polymorph integrity)” value (at 40° C./75% RH, 3 months, listed as M9) is reported as “no change in PXRD pattern; also recorded: Stable”; the “PXRD (polymorph integrity)” value (at 40° C./75% RH, Initial, listed as M9) is given as “Crystalline”.

Consider `CC1(C)CCC(CN2CCN(c3ccc(C(=O)NS(=O)(=O)c4ccc(NCC5CCOCC5)c([N+](=O)[O-])c4)c(Oc4cnc5[nH]ccc5c4)c3)CC2)=C(c2ccc(Cl)cc2)C1` [Amorphous, 4-[4-[[2-(4-chlorophenyl)-4,4-dimethylcyclohexen-1-yl]methyl]piperazin-1-yl]-N-[3-nitro-4-(oxan-4-ylmethylamino)phenyl]sulfonyl-2-(1H-pyrrolo[2,3-b]pyridin-5-yloxy)benzamide], for which the “PXRD (polymorph integrity)” value is, setting by setting: (at 25° C./60% RH, 1 months) “Stable”; (at 25° C./60% RH, 2 months) “Stable”; (at 25° C./60% RH, 3 months) “Stable”; (at 25° C./60% RH, 3 months, listed as amorphous venetoclax) “no change in PXRD pattern”; (at 25° C./60% RH, 15 days) “Stable”; (at 25° C./60% RH, Initial) “Amorphous”. For the same molecule, the “PXRD (polymorph integrity)” value is on record as “Stable” (at 40° C./75% RH, 1 months); “Stable” (at 40° C./75% RH, 2 months); “Stable” (at 40° C./75% RH, 3 months); “no change in PXRD pattern” (at 40° C./75% RH, 3 months, listed as amorphous venetoclax); “Stable” (at 40° C./75% RH, 15 days); “Amorphous” (at 40° C./75% RH, Initial).

With `CC1(C)CCC(CN2CCN(c3ccc(C(=O)NS(=O)(=O)c4ccc(NCC5CCOCC5)c([N+](=O)[O-])c4)c(Oc4cnc5[nH]ccc5c4)c3)CC2)=C(c2ccc(Cl)cc2)C1` [form M10, 4-[4-[[2-(4-chlorophenyl)-4,4-dimethylcyclohexen-1-yl]methyl]piperazin-1-yl]-N-[3-nitro-4-(oxan-4-ylmethylamino)phenyl]sulfonyl-2-(1H-pyrrolo[2,3-b]pyridin-5-yloxy)benzamide], the “PXRD (polymorph integrity)” value is “no change in PXRD pattern; also recorded: Stable” (at 25° C./60% RH, 3 months, listed as M10); “Crystalline” (at 25° C./60% RH, Initial, listed as M10); “no change in PXRD pattern; also recorded: Stable” (at 40° C./75% RH, 3 months, listed as M10); “Crystalline” (at 40° C./75% RH, Initial, listed as M10).
